# Test results from patent US20090252674A1, “Tripodal Ligands with the Coordinating Motifs K2 -BH2 or K3 -BH3 Relevant for Biomedical Applications of Organometallic Complexes” (Mallinckrodt Inc., priority 2005, published 2009).
# Assay: HPLC analysis of the 6a preparation at different intervals of time (stability under physiologic conditions)
# Format: physicochemical
# Conditions: PBS, pH 7.4
# Procedure: In a nitrogen-purged glass vial, 100 μL of a 2.5×10^−2 M aqueous solution of ligand 1 were added to 400 μL (7.5 mCi) of the organometallic precursor fac−[^99mTc(OH2)3(CO)3]^+, and the mixture was incubated at room temperature for 30 min. After this time, complex 6a has been obtained in 90% yield, as checked by gradient HPLC analysis (from 100% aqueous 0.1% CF3COOH solution to 100% CH3CN) using a Nucleosil column (10:m, 250 mm×4 mm). The chemical identity of 6a was confirmed by comparing its HPLC chromatogram with the HPLC profile of the analogue Re complex (6) (Retention time: Re, 25.78 min; ^99mTc, 26.28 min). HPLC analysis of the preparation of 6a, at different intervals of time, has shown that 6a is stable under physiologic conditions (PBS, pH 7.4), at least for a period of 24 h.
substance,measurement,value
[^99mTc (κ^3-H3B(Tim^Me))(CO)3] [complex 6a],"stable under physiologic conditions, period",≥ 24 h
